Activity calls are given as the source filed them. No cut-off for these calls is given here.
Legend:
SF-295 = assay: Antiproliferative activity against human SF-295 cells assessed as cell growth inhibition at 10 uM by SRB assay relative to control; assay type: functional
SK-MEL-28 = assay: Antiproliferative activity against human SK-MEL-28 cells assessed as cell growth inhibition at 10 uM by SRB assay relative to control; assay type: functional
HL-60 = assay: Antiproliferative activity against human HL-60 cells assessed as cell growth inhibition at 10 uM by SRB assay relative to control; assay type: functional
HOP-92 = assay: Antiproliferative activity against human HOP-92 cells assessed as cell growth inhibition at 10 uM by SRB assay; assay type: functional, cell-based
HT-29 = assay: Antiproliferative activity against human HT-29 cells assessed as cell growth inhibition at 10 uM by SRB assay; assay type: functional, cell-based
SW-620 = assay: Antiproliferative activity against human SW620 cells assessed as cell growth inhibition at 10 uM by SRB assay; assay type: functional, cell-based
SF-268 = assay: Antiproliferative activity against human SF-268 cells assessed as cell growth inhibition at 10 uM by SRB assay relative to control; assay type: functional
SK-MEL-2 = assay: Antiproliferative activity against human SK-MEL-2 cells assessed as cell growth inhibition at 10 uM by SRB assay relative to control; assay type: functional; details: Homo sapiens, SK-MEL-2, dose 10 µM
OVCAR-3 = assay: Antiproliferative activity against human OVCAR-3 cells assessed as cell growth inhibition at 10 uM by SRB assay relative to control; assay type: functional; details: pooled result: one value given for 2 cell lines, strains, targets or settings
TK-10 = assay: Antiproliferative activity against human TK-10 cells assessed as inhibition of cell growth at 10 uM by SRB assay relative to control; assay type: functional
T47D = assay: Antiproliferative activity against estrogen receptor positive human T47D cells assessed as inhibition of cell growth at 10 uM by SRB assay; assay type: functional, cell-based
Lung cancer cell line = assay: Antiproliferative activity against human lung cancer cells assessed as cell growth inhibition at 10 uM by SRB assay relative to control; assay type: functional
[1] = Antiproliferative activity against human brain cancer cells assessed as cell growth inhibition at 10 uM by SRB assay relative to control; assay type: functional
[2] = target: Receptor tyrosine-protein kinase erbB-4 (Homo sapiens) (UniProt Q15303); assay: Inhibition of ERBB4 (unknown origin) at 10 uM by biochemical hotspot kinase assay relative to control
[3] = target: Vascular endothelial growth factor receptor 1 (Homo sapiens) (UniProt P17948); assay: Inhibition of VEGFR1 (unknown origin) at 10 uM by biochemical hotspot kinase assay relative to control
[4] = target: Vascular endothelial growth factor receptor 3 (Homo sapiens) (UniProt P35916); assay: Inhibition of VEGFR3 (unknown origin) at 10 uM by biochemical hotspot kinase assay relative to control
[5] = target: Fibroblast growth factor receptor 1 (Homo sapiens) (UniProt P11362); assay: Inhibition of FGFR1 (unknown origin) at 10 uM by biochemical hotspot kinase assay relative to control
[6] = target: Platelet-derived growth factor receptor alpha (Homo sapiens) (UniProt P16234); assay: Inhibition of PDGFRa (unknown origin) at 10 uM by biochemical hotspot kinase assay
Platelet-derived growth factor receptor alpha (Homo sapiens), sequence (P16234 whole entry): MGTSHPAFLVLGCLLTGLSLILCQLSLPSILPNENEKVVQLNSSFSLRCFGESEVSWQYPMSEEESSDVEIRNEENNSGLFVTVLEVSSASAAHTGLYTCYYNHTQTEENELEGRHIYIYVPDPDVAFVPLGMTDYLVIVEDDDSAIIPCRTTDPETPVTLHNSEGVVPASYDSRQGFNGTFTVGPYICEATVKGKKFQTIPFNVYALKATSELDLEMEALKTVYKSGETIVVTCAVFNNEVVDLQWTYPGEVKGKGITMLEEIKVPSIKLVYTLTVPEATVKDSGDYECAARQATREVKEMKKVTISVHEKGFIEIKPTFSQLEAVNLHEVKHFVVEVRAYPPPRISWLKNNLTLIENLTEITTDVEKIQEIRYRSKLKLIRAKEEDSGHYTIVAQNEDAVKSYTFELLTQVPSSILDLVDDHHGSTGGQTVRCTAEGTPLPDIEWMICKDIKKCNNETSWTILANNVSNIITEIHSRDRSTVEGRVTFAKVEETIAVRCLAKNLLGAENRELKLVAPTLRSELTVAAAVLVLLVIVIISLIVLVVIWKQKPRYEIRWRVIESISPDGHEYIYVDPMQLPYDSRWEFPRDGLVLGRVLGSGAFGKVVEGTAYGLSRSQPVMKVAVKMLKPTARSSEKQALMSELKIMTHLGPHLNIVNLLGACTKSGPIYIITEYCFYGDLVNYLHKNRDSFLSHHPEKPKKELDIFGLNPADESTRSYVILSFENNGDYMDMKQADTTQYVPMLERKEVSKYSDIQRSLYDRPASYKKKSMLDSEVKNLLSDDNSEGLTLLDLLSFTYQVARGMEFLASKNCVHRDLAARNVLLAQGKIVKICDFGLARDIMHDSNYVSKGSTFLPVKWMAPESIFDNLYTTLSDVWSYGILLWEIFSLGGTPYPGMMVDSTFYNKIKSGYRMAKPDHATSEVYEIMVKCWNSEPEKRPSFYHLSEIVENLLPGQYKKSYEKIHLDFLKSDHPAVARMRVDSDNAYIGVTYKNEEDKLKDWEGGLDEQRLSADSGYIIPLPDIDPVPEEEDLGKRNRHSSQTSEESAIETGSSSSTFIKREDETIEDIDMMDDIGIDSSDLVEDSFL

[7] = target: High affinity nerve growth factor receptor (Homo sapiens) (UniProt P04629); assay: Inhibition of TrkA (unknown origin) at 10 uM by biochemical hotspot kinase assay
High affinity nerve growth factor receptor (Homo sapiens), sequence (P04629 33-796 limits assumed): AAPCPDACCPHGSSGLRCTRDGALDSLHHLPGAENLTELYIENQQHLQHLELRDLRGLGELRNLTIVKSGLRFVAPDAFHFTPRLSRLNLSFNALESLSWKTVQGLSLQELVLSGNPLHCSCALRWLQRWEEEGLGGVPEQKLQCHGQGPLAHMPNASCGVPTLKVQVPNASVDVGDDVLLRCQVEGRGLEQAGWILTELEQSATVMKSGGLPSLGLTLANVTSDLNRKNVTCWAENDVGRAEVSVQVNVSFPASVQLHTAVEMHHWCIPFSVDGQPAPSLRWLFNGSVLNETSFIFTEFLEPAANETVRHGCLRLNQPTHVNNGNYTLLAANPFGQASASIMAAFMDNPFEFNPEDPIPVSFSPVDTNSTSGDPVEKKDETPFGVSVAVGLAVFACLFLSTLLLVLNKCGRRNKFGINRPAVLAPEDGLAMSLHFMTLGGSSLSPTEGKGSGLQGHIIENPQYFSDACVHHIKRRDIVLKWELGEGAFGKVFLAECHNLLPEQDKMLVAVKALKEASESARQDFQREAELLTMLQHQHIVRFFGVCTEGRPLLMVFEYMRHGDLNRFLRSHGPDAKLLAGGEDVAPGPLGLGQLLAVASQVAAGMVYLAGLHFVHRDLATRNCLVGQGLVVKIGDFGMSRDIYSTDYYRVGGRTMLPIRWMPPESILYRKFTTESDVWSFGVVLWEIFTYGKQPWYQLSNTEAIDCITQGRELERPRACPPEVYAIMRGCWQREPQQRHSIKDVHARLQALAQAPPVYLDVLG

[8] = target: Tyrosine-protein kinase ABL1 (Homo sapiens) (UniProt P00519); assay: Inhibition of ABL1 (unknown origin) at 10 uM by biochemical hotspot kinase assay
Tyrosine-protein kinase ABL1 (Homo sapiens), sequence (P00519 whole entry): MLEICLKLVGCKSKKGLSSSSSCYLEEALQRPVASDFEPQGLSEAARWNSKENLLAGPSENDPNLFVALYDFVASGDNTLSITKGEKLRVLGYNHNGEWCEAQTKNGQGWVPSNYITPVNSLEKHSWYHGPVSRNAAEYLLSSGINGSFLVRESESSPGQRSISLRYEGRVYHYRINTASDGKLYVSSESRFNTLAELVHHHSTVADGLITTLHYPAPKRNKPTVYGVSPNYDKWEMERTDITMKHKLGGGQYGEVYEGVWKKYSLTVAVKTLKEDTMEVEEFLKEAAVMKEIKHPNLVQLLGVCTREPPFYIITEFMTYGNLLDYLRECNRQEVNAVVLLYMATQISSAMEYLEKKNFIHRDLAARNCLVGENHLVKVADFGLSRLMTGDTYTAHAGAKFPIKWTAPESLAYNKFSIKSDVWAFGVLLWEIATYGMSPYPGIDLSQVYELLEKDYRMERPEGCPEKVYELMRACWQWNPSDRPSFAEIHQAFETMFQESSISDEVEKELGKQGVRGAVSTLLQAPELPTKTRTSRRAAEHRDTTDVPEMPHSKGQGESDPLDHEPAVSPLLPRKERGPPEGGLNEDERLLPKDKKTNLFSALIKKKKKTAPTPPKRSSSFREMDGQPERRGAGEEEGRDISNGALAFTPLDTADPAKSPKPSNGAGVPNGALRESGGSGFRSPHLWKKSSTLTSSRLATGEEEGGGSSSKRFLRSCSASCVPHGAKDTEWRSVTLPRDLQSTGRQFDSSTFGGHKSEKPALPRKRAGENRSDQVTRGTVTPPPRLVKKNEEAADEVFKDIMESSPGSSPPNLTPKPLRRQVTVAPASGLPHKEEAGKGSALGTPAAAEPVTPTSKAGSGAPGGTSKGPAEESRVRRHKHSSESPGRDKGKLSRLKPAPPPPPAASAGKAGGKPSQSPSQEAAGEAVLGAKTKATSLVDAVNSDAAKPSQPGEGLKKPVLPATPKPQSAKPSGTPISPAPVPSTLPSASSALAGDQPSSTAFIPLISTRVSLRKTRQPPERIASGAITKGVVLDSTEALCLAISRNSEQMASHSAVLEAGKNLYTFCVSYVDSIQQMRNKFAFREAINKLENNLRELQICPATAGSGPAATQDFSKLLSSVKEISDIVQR

[9] = target: Interleukin-1 receptor-associated kinase 4 (Homo sapiens) (UniProt Q9NWZ3); assay: Inhibition of IRAK4 (unknown origin) at 10 uM by biochemical hotspot kinase assay
[10] = target: Receptor-interacting serine/threonine-protein kinase 2 (Homo sapiens) (UniProt O43353); assay: Inhibition of RIPK2 (unknown origin) at 10 uM by biochemical hotspot kinase assay relative to control
Receptor-interacting serine/threonine-protein kinase 2 (Homo sapiens), sequence (O43353 whole entry): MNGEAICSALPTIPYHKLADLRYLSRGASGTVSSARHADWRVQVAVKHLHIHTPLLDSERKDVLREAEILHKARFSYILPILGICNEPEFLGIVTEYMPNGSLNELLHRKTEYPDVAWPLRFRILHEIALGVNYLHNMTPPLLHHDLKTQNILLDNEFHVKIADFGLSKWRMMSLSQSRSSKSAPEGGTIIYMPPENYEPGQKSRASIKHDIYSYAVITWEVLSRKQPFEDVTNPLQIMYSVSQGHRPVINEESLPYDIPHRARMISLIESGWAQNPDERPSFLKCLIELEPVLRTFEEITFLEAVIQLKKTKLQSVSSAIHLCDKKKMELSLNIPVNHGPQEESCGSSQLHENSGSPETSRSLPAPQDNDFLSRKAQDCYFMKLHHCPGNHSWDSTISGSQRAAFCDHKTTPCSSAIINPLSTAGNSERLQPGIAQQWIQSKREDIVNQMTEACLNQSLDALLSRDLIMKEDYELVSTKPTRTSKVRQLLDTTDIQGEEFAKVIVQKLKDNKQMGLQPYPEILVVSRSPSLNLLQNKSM

[11] = target: RAC-alpha serine/threonine-protein kinase (Homo sapiens) (UniProt P31749); assay: Inhibition of AKT1 (unknown origin) at 10 uM by biochemical hotspot kinase assay relative to control
[12] = target: cAMP-dependent protein kinase (PKA) (Homo sapiens) (UniProt P22694+P17612+P22612); assay: Inhibition of PKA (unknown origin) at 10 uM by biochemical hotspot kinase assay; assay type: protein assay
[13] = target: Protein kinase C alpha type (Homo sapiens) (UniProt P17252); assay: Inhibition of PKCa (unknown origin) at 10 uM by biochemical hotspot kinase assay
[14] = target: Mitogen-activated protein kinase 1 (Homo sapiens) (UniProt P28482); assay: Inhibition of ERK2 (unknown origin) at 10 uM by biochemical hotspot kinase assay relative to control
[15] = target: Glycogen synthase kinase-3 beta (Homo sapiens) (UniProt P49841); assay: Inhibition of GSK3beta (unknown origin) at 10 uM by biochemical hotspot kinase assay relative to control
[16] = target: Cyclin-dependent kinase 1/cyclin B (Homo sapiens) (UniProt P06493+P14635+Q8WWL7+O95067); assay: Inhibition of CDK1/cyclin B (unknown origin) at 10 uM by biochemical hotspot kinase assay; assay type: protein-complex assay
[17] = target: CDK1/Cyclin E (Homo sapiens) (UniProt P06493+P24864); assay: Inhibition of CDK1/cyclin E (unknown origin) at 10 uM by biochemical hotspot kinase assay; assay type: protein-complex assay
CDK1/Cyclin E (Homo sapiens), sequence (P06493 whole entry, looked up): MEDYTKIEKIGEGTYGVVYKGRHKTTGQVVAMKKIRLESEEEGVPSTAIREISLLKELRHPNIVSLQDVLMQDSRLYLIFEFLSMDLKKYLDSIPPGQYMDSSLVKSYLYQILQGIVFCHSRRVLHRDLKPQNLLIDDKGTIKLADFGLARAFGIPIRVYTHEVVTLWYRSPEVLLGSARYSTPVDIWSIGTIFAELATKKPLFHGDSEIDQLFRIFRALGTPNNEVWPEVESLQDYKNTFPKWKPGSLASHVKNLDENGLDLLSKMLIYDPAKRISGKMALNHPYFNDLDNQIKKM
CDK1/Cyclin E (Homo sapiens), sequence (P24864 whole entry, looked up): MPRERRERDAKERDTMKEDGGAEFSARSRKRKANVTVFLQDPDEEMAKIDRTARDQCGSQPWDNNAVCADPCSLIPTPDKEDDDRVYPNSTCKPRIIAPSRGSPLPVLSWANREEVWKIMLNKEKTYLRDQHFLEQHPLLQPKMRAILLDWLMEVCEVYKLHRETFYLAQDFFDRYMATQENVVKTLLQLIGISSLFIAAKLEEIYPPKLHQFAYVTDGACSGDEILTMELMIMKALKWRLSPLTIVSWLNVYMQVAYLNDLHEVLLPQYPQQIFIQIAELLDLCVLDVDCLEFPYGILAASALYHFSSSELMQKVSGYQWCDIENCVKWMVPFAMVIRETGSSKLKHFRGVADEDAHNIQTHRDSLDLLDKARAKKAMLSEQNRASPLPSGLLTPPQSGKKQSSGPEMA

[18] = target: Cyclin-dependent kinase 2/cyclin A (Homo sapiens) (UniProt P24941+P20248+P78396); assay: Inhibition of CDK2/cyclin A (unknown origin) at 10 uM by biochemical hotspot kinase assay; assay type: protein-complex assay
[19] = target: Serine/threonine-protein kinase ICK (Homo sapiens) (UniProt Q9UPZ9); assay: Inhibition of LCK2 (unknown origin) at 10 uM by biochemical hotspot kinase assay
[20] = target: Mitogen-activated protein kinase 14 (Homo sapiens) (UniProt Q16539); assay: Inhibition of p38a (unknown origin) at 10 uM by biochemical hotspot kinase assay
[21] = target: Mitogen-activated protein kinase kinase kinase kinase 1 (Homo sapiens) (UniProt Q92918); assay: Inhibition of HPK1 (unknown origin) at 10 uM by biochemical hotspot kinase assay
[22] = target: Mitogen-activated protein kinase kinase kinase 14 (Homo sapiens) (UniProt Q99558); assay: Inhibition of MAP3K14 (unknown origin) at 10 uM by biochemical hotspot kinase assay relative to control
[23] = target: Serine/threonine-protein kinase PAK 1 (Homo sapiens) (UniProt Q13153); assay: Inhibition of PAK1 (unknown origin) at 10 uM by biochemical hotspot kinase assay
Serine/threonine-protein kinase PAK 1 (Homo sapiens), sequence (Q13153 whole entry): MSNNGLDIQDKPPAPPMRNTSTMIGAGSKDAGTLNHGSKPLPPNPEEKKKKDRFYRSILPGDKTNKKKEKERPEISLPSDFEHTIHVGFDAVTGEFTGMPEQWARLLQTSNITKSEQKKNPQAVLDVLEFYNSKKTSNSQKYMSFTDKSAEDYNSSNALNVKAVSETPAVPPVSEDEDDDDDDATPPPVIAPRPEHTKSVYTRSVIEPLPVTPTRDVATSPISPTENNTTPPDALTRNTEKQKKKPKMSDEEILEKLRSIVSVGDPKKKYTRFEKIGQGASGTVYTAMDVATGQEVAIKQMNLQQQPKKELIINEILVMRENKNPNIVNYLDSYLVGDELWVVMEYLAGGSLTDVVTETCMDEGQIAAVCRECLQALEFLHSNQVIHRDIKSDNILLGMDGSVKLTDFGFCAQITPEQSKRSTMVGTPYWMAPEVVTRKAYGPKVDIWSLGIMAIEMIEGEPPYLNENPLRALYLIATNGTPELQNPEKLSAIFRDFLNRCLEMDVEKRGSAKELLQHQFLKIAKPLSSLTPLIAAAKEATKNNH

[24] = target: Serine/threonine-protein kinase PAK 2 (Homo sapiens) (UniProt Q13177); assay: Inhibition of PAK2 (unknown origin) at 10 uM by biochemical hotspot kinase assay
[25] = target: Calcium/calmodulin-dependent protein kinase type II subunit beta (Homo sapiens) (UniProt Q13554); assay: Inhibition of CAMK2B (unknown origin) at 10 uM by biochemical hotspot kinase assay relative to control
[26] = target: Wee1-like protein kinase (Homo sapiens) (UniProt P30291); assay: Inhibition of WEE1 (unknown origin) at 10 uM by biochemical hotspot kinase assay

COc1cc2oc(-c3cccc(C(=O)Nc4ccc(Cl)cc4)c3)cc(=O)c2c(OC)c1OC
inhibition at 10 µM (SF-295): 142%
inhibition at 10 µM (SK-MEL-28): 107%
inhibition at 10 µM (HL-60): 111%
inhibition (HOP-92): Active
inhibition (HT-29): Active
inhibition (SW-620): Active
inhibition at 10 µM (SF-268): > 50%
inhibition at 10 µM (SK-MEL-2): 68.6%
inhibition at 10 µM (OVCAR-3): 56.9%
inhibition at 10 µM (TK-10): 61.4%
inhibition (T47D): Active
inhibition at 10 µM (Lung cancer cell line): 61.5%
inhibition at 10 µM [1]: 61.5%

COc1cc2oc(-c3cccc(C(=O)Nc4ccc(C)cc4)c3)cc(=O)c2c(OC)c1OC
inhibition at 10 µM (SF-295): 147%
inhibition at 10 µM (SK-MEL-28): 92.9%
inhibition at 10 µM (HL-60): 92.7%
inhibition (HOP-92): Active
inhibition (HT-29): Active
inhibition (SW-620): Active
inhibition at 10 µM (OVCAR-3): 51.8%
inhibition at 10 µM (Lung cancer cell line): 66.5%
inhibition at 10 µM [1]: 64.7%
inhibition [2]: 16%
inhibition [3]: 14.9%
inhibition [4]: 8.65%
inhibition [5]: 16.5%
inhibition [6]: inactive
inhibition [7]: inactive
inhibition [8]: inactive
inhibition [9]: inactive
inhibition [10]: 36.1%
inhibition [11]: 2.36%
inhibition [12]: inactive
inhibition [13]: inactive
inhibition [14]: 17.2%
inhibition [15]: 1.03%
inhibition [16]: inactive
inhibition [17]: inactive
inhibition [18]: inactive
inhibition [19]: inactive
inhibition [20]: inactive
inhibition [21]: inactive
inhibition [22]: 20.9%
inhibition [23]: inactive
inhibition [24]: inactive
inhibition [25]: 1.99%
inhibition [26]: inactive
